Laboratory results reported in patent US9321753B2, “Inhibitors of Flaviviridae viruses” (Gilead Sciences, Inc., priority 2010, dated 2016).

Tested on: HCV replicon
Assay: HCV replicon assay in human hepatoma Huh-7 cell line (luciferase readout)
Assay type: cell-based
Settings: 2 μM; Huh-7 HCV replicon cells, 3 days incubation; inhibition of viral replication
Procedure: The anti-HCV activity of the compounds of this invention was tested in a human hepatoma Huh-7 cell line harboring a HCV replicon. The assay comprised the following steps:
Serial dilution was performed in 100% DMSO in a 384-well plate. A solution containing a compound at 225-fold concentration of the starting final serial dilution concentration was prepared in 100% DMSO and 15 uL added to the pre-specified wells in column 3 or 13 of a polypropylene 384-well plate. The rest of the 384-well plate was filled with 10 uL 100% DMSO except for columns 23 and 24, where 10 uL of 500 uM a HCV protease inhibitor (ITMN-191) in 100% DMSO was added. The HCV protease inhibitor was used a control of 100% inhibition of HCV replication. The plate was then placed on a Biomek FX Workstation to start the serial dilution. The serial dilution was performed for ten cycles of 3-fold dilution from column 3 to 12 or from column 13 to 22.
To each well of a black polypropylene 384-well plate, 90 μL of cell media containing 1600 suspended Huh-7 HCV replicon cells was added with a Biotek uFlow Workstation. A volume of 0.4 μL of the compound solution was transferred from the serial dilution plate to the cell culture plate on a Biomek FX Workstation. The DMSO concentration in the final assay condition was 0.44%. The plates were incubated for 3 days at 37° C. with 5% CO2 and 85% humidity.
a) Assessment of cytotoxicity: The media in the 384-well cell culture plate was aspirated with a Biotek EL405 plate-washer. A volume of 50 μL of a solution containing 400 nM Calcein AM in 100% PBS was added to each well of the plate with a Biotek uFlow Workstation. The plate was incubated for 30 minutes at room temperature before the fluorescence signal ([…]) was measured with a Perkin Elmer Envision Plate Reader.
b) Assessment of inhibition of viral replication: The calcein-PBS solution in the 384-well cell culture plate was aspirated with a Biotek EL405 plate-washer. A volume of 20 μL of Dual-Glo luciferase buffer (Promega, Dual-Glo Luciferase Assay Reagent, cat. #E298B) was added to each well of the plate with a Biotek uFlow Workstation. The plate was incubated for 10 minutes at room temperature. A volume of 20 μL of a solution containing 1:100 mixture of Dual-Glo Stop & Glo substrate (Promega, Dual-Glo Luciferase Assay Reagent, cat. #E313B) and Dual-Glo Stop & Glo buffer (Promega, Dual-Glo Luciferase Assay Reagent, cat #E314B) was then added to each well of the plate with a Biotek uFlow Workstation. The plate was incubated at room temperature for 10 minutes before the luminescence signal was measured with a Perkin Elmer Envision Plate Reader.
The percent cytotoxicity was determined by calcein AM conversion to fluorescent product. The average fluorescent signal from the DMSO control wells were defined as 100% nontoxic. The individual fluorescent signal from testing compound treated well was divided by the average signal from DMSO control wells and then multiplied by 100% to get the percent viability. The percent anti-HCV replication activity was determined by the luminescence signal from the testing well compared to DMSO controls wells. The background signal was determined by the average luminescence signal from the HCV protease inhibitor treated wells and was subtracted from the signal from the testing wells as well as the DMSO control wells. Following 3-fold serial dilutions, the EC50 and CC50 values were calculated by fitting % inhibition at each concentration to the following equation: % inhibition=100%/[(EC50/[I])^b+1]
Where b is Hill's coefficient. See, for reference, Hill, A. V., The Possible Effects of the Aggregation of the Molecules of Haemoglobin on its Dissociation Curves, J. Physiol. 40: iv-vii. (1910).
% inhibition values at a specific concentration, for example 2 μM, can also be derived from the formula above.

`CC1=CCC(C(=O)N(c2cc(C#CC(C)(C)C)sc2C(=O)O)[C@H]2CC[C@](O)(CO[C@H]3CCOC3)CC2)[C@H](C)C1` (single isomer, unassigned) [Compound 5B, 5-(3,3-dimethyl-but-1-ynyl)-3-{(4,6R-dimethyl-cyclohex-3-enecarbonyl)-[4-hydroxy-4-(tetrahydro-furan-3-yloxymethyl)-cyclohexyl]-amino}-thiophene-2-carboxylic acid] was tested. Which “% inhibition at 2 μM” value did it give?
Its value is 99.95%.

Same assay, conditions: Hepatitis C virus, Huh-7, 72 h, 2 μM; Huh-7 HCV replicon cells, 3 days incubation; inhibition of viral replication; read-out: % inhibition at 2 μM

Which inhibition at 2 µM does the source give for `CC1=CCC(C(=O)N(c2cc(C#CC(C)(C)C)sc2C(=O)O)[C@H]2CC[C@](O)(CO[C@H]3CCOC3)CC2)[C@H](C)C1` (single isomer, unassigned) [Compound 5A, 5-(3,3-dimethyl-but-1-ynyl)-3-{(4,6R-dimethyl-cyclohex-3-enecarbonyl)-[4-hydroxy-4-(tetrahydro-furan-3-yloxymethyl)-cyclohexyl]-amino}-thiophene-2-carboxylic acid] here?
The inhibition at 2 µM was 100%.

Which inhibition at 2 µM does the source give for `CC(C)(C)C#Cc1cc(N(C(=O)[C@H]2CC[C@H](C)CC2)C2CCC(O)(COc3cccnc3)CC2)c(C(=O)O)s1` (stereo partly shown) [Compound 1, 5-(3,3-Dimethylbut-1-ynyl)-3-(N-(4-hydroxy-4-((pyridin-3-yloxy)methyl)cyclohexyl)-4-methylcyclohexanecarboxamido)thiophene-2-carboxylic acid] here?
Its inhibition at 2 µM is 99.9%.

With `CC(C)(C)C#Cc1cc(N(C(=O)[C@H]2CC[C@H](C)CC2)[C@H]2CC[C@](O)(CO[C@@H]3CCOC3)CC2)c(C(=O)O)s1` [Compound 2, 5-(3,3-Dimethyl-but-1-ynyl)-3-[[4-hydroxy-4-(tetrahydrofuran-3R-yloxymethyl)-cyclohexyl]-(4-methyl-cyclohexanecarbonyl)-amino]-thiophene-2-carboxylic acid] as the compound, how does the inhibition at 2 µM read?
The inhibition at 2 µM was 100%.

For `CC(C)(C)C#Cc1cc(N(C(=O)[C@H]2CC[C@H](C)CC2)[C@H]2CC[C@](O)(CO[C@H]3CCOC3)CC2)c(C(=O)O)s1` [Compound 3, 5-(3,3-Dimethyl-but-1-ynyl)-3-[[4-hydroxy-4-(tetrahydrofuran-3S-yloxymethyl)-cyclohexyl]-(4-methyl-cyclohexanecarbonyl)-amino]-thiophene-2-carboxylic acid], which inhibition at 2 µM is on record?
Its inhibition at 2 µM is 100%.

For `CC(C)(C)C#Cc1cc(N(C(=O)[C@H]2CC[C@H](C)CC2)[C@H]2CC[C@@](O)(CO[C@H]3CCOC3)CC2)c(C(=O)O)s1` [Compound 4], which inhibition at 2 µM is on record?
Its inhibition at 2 µM is 99.6%.

`CC1=CCC(C(=O)N(c2cc(C#CC(C)(C)C)sc2C(=O)O)[C@H]2CC[C@](O)(CO[C@H]3CCOC3)CC2)[C@@H](C)C1` (stereo partly drawn) [Compound 6, 5-(3,3-dimethyl-but-1-ynyl)-3-{(4,6S-dimethyl-cyclohex-3-enecarbonyl)-[4-hydroxy-4-(tetrahydro-furan-3(S)-yloxymethyl)-cyclohexyl]-amino}-thiophene-2-carboxylic acid] was tested. Which inhibition at 2 µM did it give?
Its inhibition at 2 µM is 99.9%.

For `CC1=CC[C@@H](C(=O)N(c2cc(C#CC(C)(C)C)sc2C(=O)O)[C@H]2CC[C@](O)(CO[C@@H]3CCOC3)CC2)CC1` [Compound 7], which inhibition at 2 µM is on record?
The inhibition at 2 µM was 100%.

`CC1=CC[C@@H](C(=O)N(c2cc(C#CC(C)(C)C)sc2C(=O)O)[C@H]2CC[C@](O)(CO[C@H]3CCOC3)CC2)CC1` [Compound 8] was tested. Which inhibition at 2 µM did it give?
Its inhibition at 2 µM is 99.9%.

`CC1=CC[C@H](C(=O)N(c2cc(C#CC(C)(C)C)sc2C(=O)O)[C@H]2CC[C@](O)(CO[C@H]3CCOC3)CC2)CC1` [Compound 9] was tested. Which inhibition at 2 µM did it give?
Its inhibition at 2 µM is 100%.

How did the inhibition at 2 µM turn out when `CC1=CC[C@H](C(=O)N(c2cc(C#CC(C)(C)C)sc2C(=O)O)[C@H]2CC[C@](O)(CO[C@@H]3CCOC3)CC2)CC1` [Compound 10] was run?
Its inhibition at 2 µM is 100%.

With `COC(=O)c1sc(C#CC(C)(C)C)cc1N(C(=O)[C@H]1CC=C(C)C[C@@H]1C)[C@H]1CC[C@](O)(CO[C@H]2CCOC2)CC1` [Compound 17] as the compound, how does the inhibition at 2 µM read?
Its inhibition at 2 µM is 78.8%.

How did the inhibition at 2 µM turn out when `CC1=CC[C@H](C(=O)N(c2cc(C#CC(C)(C)C)sc2C(=O)O)[C@H]2CC[C@](O)(CO[C@@H]3CCOC3)CC2)[C@@H](C)C1` [Compound 18] was run?
The inhibition at 2 µM was 100%.

For `[2H]C([2H])([2H])C(C#Cc1cc(N(C(=O)[C@H]2CC=C(C)CC2)C2CCC(O)(CO[C@H]3CCOC3)CC2)c(C(=O)O)s1)(C([2H])([2H])[2H])C([2H])([2H])[2H]` (stereo partly shown) [Compound 24], which inhibition at 2 µM is on record?
The inhibition at 2 µM was 100%.

For `CC1=CC[C@H](C(=O)N(c2cc(C#CC(C)(C)CO)sc2C(=O)O)[C@H]2CC[C@](O)(CO[C@H]3CCOC3)CC2)CC1` [Compound 29, 5-(4-hydroxy-3,3-dimethylbut-1-ynyl)-3-((R)-N-((1R,4S)-4-hydroxy-4-(((S)-tetrahydrofuran-3-yloxy)methyl)cyclohexyl)-4-methylcyclohex-3-enecarboxamido)thiophene-2-carboxylic acid], which inhibition at 2 µM is on record?
Its inhibition at 2 µM is 100%.

Same assay, conditions: Hepatitis C virus, Huh-7, 72 h, read-out: % inhibition at 2 μM

Which inhibition at 2 µM does the source give for `CC1=CC[C@H](C(=O)N(c2cc(C#CC(C)(C)C)sc2C(=O)O)[C@H]2CC[C@](O)(CO[C@H]3CCOC3)CC2)[C@@H](C)C1` [Compound 16] here?
Its inhibition at 2 µM is 100%.
